Measured values reported in patent publication US10208030B2, “GPR119 agonist compounds” (Mankind Pharma Ltd., priority 2016, dated 2019).

What follows are compounds tested against T1, hGPR119 (Homo sapiens, UniProt Q8TDV5) (assay: In vitro cyclic AMP assay (Cisbio HTRF) in CHO-hGPR119 cells). Settings: 1 h, cAMP, 1 μM, 60 min, read-out: Induction (% induction at 1 μM).
T1 construct: expressed in transfected cells; host or cells: CHO cells (CHO-hGPR119)
T1 sequence (Q8TDV5 1-335): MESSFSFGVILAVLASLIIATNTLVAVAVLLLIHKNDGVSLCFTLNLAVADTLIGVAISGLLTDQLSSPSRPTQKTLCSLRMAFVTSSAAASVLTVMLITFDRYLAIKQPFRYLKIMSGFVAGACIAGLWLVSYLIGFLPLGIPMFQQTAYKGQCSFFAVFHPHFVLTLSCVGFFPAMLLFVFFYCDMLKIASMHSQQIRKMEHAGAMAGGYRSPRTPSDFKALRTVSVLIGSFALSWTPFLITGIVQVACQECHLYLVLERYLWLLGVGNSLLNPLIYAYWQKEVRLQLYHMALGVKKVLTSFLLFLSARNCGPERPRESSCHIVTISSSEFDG
Format: cell-based
Protocol: cAMP measurements were done using Cisbio dynamic 2 HTRF kit according to the manufacturer's protocol. Briefly, CHO-hGPR119 cells were plated at a cell density of 5000 cells/well/5 μl into a white small volume 384 well plate. The final concentrations of IBMX and DMSO used were 1 mM and 0.5% respectively. Cells were treated with various concentrations of the test compound for 60 min at room temperature. Cells were lysed by buffer containing Anti-cAMP antibody and d2-cAMP reagents and incubated for 1 hour at room temperature. HTRF was measured at 337 nm excitation and emission wavelengths of 665 nm and 620 nm on a microplate reader (Flurostar, BMG Labtech). Graphpad prism software was utilized for EC50 determinations.
In the case of COCCNC(=O)c1ccc(-c2nn3cc(C4CCN(C(=O)OC(C)C)CC4)nc3s2)cc1 [Compound 1035, isopropyl 4-(2-(4-((2-methoxyethyl)carbamoyl)phenyl)imidazo[2,1-b][1,3,4]thiadiazol-6-yl)piperidine-1-carboxylate], the activation at 1 µM is reported as 21%.
Work on CC(C)c1noc(C2CCN(c3nn4cc(-c5ccc(C(=O)N(C)C)cc5)nc4s3)CC2)n1 [Compound 1036, 4-(2-(4-(3-isopropyl-1,2,4-oxadiazol-5-yl)piperidin-1-yl)imidazo[2,1-b][1,3,4]thiadiazol-6-yl)-N,N-dimethylbenzamide] yielded an activation at 1 µM of 24%.
In the case of CS(=O)(=O)c1ccc(OCc2cn3nc(C4CCN(Cc5ccccc5)CC4)sc3n2)cc1 [Compound 1038, 2-(1-benzylpiperidin-4-yl)-6-((4-(methylsulfonyl)phenoxy)methyl)imidazo[2,1-b][1,3,4]thiadiazole], the activation at 1 µM is reported as 6%.
Compound COCCNC(=O)c1ccc(-c2cn3nc(N4CCC(c5nc(C(C)C)no5)CC4)sc3n2)cc1 [Compound 1039, 4-(2-(4-(3-isopropyl-1,2,4-oxadiazol-5-yl)piperidin-1-yl)imidazo[2,1-b][1,3,4]thiadiazol-6-yl)-N-(2-methoxyethyl)benzamide] has an activation at 1 µM of 11%.
For CC(C)c1noc(C2CCN(c3nn4cc(COc5ccc(S(C)(=O)=O)cc5)nc4s3)CC2)n1 [Compound 1040, 3-isopropyl-5-(1-(6-((4-(methylsulfonyl)phenoxy)methyl)imidazo[2,1-b][1,3,4]thiadiazol-2-yl)piperidin-4-yl)-1,2,4-oxadiazole], the activation at 1 µM was 4%.
CC(C)c1noc(N2CCC(Oc3nn4cc(COc5ccc(S(C)(=O)=O)cc5)nc4s3)CC2)n1 [Compound 1042, 3-isopropyl-5-(4-((6-((4-(methylsulfonyl)phenoxy)methyl)imidazo[2,1-b][1,3,4]thiadiazol-2-yl)oxy)piperidin-1-yl)-1,2,4-oxadiazole] showed an activation at 1 µM of 2%.
Compound CC(C)c1noc(C2CCN(c3nn4c(Cl)c(-c5ccc(S(C)(=O)=O)cc5)nc4s3)CC2)n1 [Compound 1044, 5-(1-(5-chloro-6-(4-(methylsulfonyl)phenyl)imidazo[2,1-b][1,3,4]thiadiazol-2-yl)piperidin-4-yl)-3-isopropyl-1,2,4-oxadiazole] has an activation at 1 µM of 71%.
CS(=O)(=O)c1ccc(-c2cn3nc(N4CCC(c5nc(C6CC6)no5)CC4)sc3n2)cc1 [Compound 1045, 3-cyclopropyl-5-(1-(6-(4-(methylsulfonyl)phenyl)imidazo[2,1-b][1,3,4]thiadiazol-2-yl)piperidin-4-yl)-1,2,4-oxadiazole] gave an activation at 1 µM of 22%.
With CC(C)c1noc(C2CCN(c3nn4cc(-c5ccc(C#N)cc5)nc4s3)CC2)n1 [Compound 1046, 4-(2-(4-(3-isopropyl-1,2,4-oxadiazol-5-yl)piperidin-1-yl)imidazo[2,1-b][1,3,4]thiadiazol-6-yl)benzonitrile] the activation at 1 µM was 26%.
Compound CC(C)c1noc(N2CCC(C(C)Oc3nn4cc(-c5ccc(C#N)cc5)nc4s3)CC2)n1 (stereo not shown) [Compound 1047, 4-(2-(1-(1-(3-isopropyl-1,2,4-oxadiazol-5-yl)piperidin-4-yl)ethoxy)imidazo[2,1-b][1,3,4]thiadiazol-6-yl)benzonitrile] has an activation at 1 µM of 51%.
For CC(C)c1noc(N2CCC(C(C)Oc3nn4cc(-c5ccc(C(=O)N(C)C)cc5)nc4s3)CC2)n1 (stereo not shown) [Compound 1048, 4-(2-(1-(1-(3-isopropyl-1,2,4-oxadiazol-5-yl)piperidin-4-yl)ethoxy)imidazo[2,1-b][1,3,4]thiadiazol-6-yl)-N,N-dimethylbenzamide], the activation at 1 µM was 56%.
With CCCc1cnc(N2CCC(C(C)Oc3nn4cc(-c5ccc(C(=O)N(C)C)cc5)nc4s3)CC2)nc1 (stereo not shown) [Compound 1049, N,N-dimethyl-4-(2-(1-(1-(5-propylpyrimidin-2-yl)piperidin-4-yl)ethoxy)imidazo[2,1-b][1,3,4]thiadiazol-6-yl)benzamide] the activation at 1 µM was 55%.
CC(C)c1noc(N2CCC(C(C)Oc3nn4cc(-c5ccncc5)nc4s3)CC2)n1 (stereo not shown) [Compound 1050, 3-isopropyl-5-(4-(1-((6-(pyridin-4-yl)imidazo[2,1-b][1,3,4]thiadiazol-2-yl)oxy)ethyl)piperidin-1-yl)-1,2,4-oxadiazole] was tested, and the activation at 1 µM was 68%.
For CC(C)c1noc(C2CCN(c3nn4cc(-c5ccncc5)nc4s3)CC2)n1 [Compound 1051, 3-isopropyl-5-(1-(6-(pyridin-4-yl)imidazo[2,1-b][1,3,4]thiadiazol-2-yl)piperidin-4-yl)-1,2,4-oxadiazole], the activation at 1 µM was 7%.
Compound CC(C)c1noc(C2CCN(c3nn4c(Cl)c(-c5ccncc5)nc4s3)CC2)n1 [Compound 1052, 5-(1-(5-chloro-6-(pyridin-4-yl)imidazo[2,1-b][1,3,4]thiadiazol-2-yl)piperidin-4-yl)-3-isopropyl-1,2,4-oxadiazole] has an activation at 1 µM of 12%.
CC(C)c1noc(N2CCC(COc3nn4cc(-c5ccc(C#N)cc5)nc4s3)CC2)n1 [Compound 1053, 4-(2-((1-(3-isopropyl-1,2,4-oxadiazol-5-yl)piperidin-4-yl)methoxy)imidazo[2,1-b][1,3,4]thiadiazol-6-yl)benzonitrile] was tested, and the activation at 1 µM was 49%.
Compound CC(C)c1noc(N2CCC(COc3nn4cc(-c5ccncc5)nc4s3)CC2)n1 [Compound 1054, 3-isopropyl-5-(4-(((6-(pyridin-4-yl)imidazo[2,1-b][1,3,4]thiadiazol-2-yl)oxy)methyl)piperidin-1-yl)-1,2,4-oxadiazole] has an activation at 1 µM of 16%.
Work on CC(C)c1noc(N2CCC(C(C)Oc3nn4cc(-c5ccc(S(C)(=O)=O)nc5)nc4s3)CC2)n1 (stereo not shown) [Compound 1055, 3-isopropyl-5-(4-(1-((6-(6-(methylsulfonyl)pyridin-3-yl)imidazo[2,1-b][1,3,4]thiadiazol-2-yl)oxy)ethyl)piperidin-1-yl)-1,2,4-oxadiazole] yielded an activation at 1 µM of 76%.
For CCc1cnc(N2CCC(C(C)Oc3nn4cc(-c5ccncc5)nc4s3)CC2)nc1 (stereo not shown) [Compound 1056, 2-(1-(1-(5-ethylpyrimidin-2-yl)piperidin-4-yl)ethoxy)-6-(pyridin-4-yl)imidazo[2,1-b][1,3,4]thiadiazole], the activation at 1 µM was 73%.
CC(C)c1noc(N2CCC(C(C)Oc3nn4cc(-c5ccc(S(C)(=O)=O)cc5)nc4s3)CC2)n1 (stereo not shown) [Compound 1057, 3-isopropyl-5-(4-(1-((6-(4-(methylsulfonyl)phenyl)imidazo[2,1-b][1,3,4]thiadiazol-2-yl)oxy)ethyl)piperidin-1-yl)-1,2,4-oxadiazole] was tested, and the activation at 1 µM was 82%.
CC(C)c1noc(N2CCC([C@@H](C)Oc3nn4cc(-c5ccc(S(C)(=O)=O)nc5)nc4s3)CC2)n1 [Compound 1058, (R)-3-isopropyl-5-(4-(1-((6-(6-(methylsulfonyl)pyridin-3-yl)imidazo[2,1-b][1,3,4]thiadiazol-2-yl)oxy)ethyl)piperidin-1-yl)-1,2,4-oxadiazole] showed an activation at 1 µM of 73%.
CC(C)c1noc(N2CCC([C@@H](C)Oc3nn4cc(-c5ccc(S(C)(=O)=O)cc5)nc4s3)CC2)n1 [Compound 1060, (R)-3-isopropyl-5-(4-(1-((6-(4-(methylsulfonyl)phenyl)imidazo[2,1-b][1,3,4]thiadiazol-2-yl)oxy)ethyl)piperidin-1-yl)-1,2,4-oxadiazole] was tested, and the activation at 1 µM was 65%.
For CC(C)c1noc(N2CCC(C(C)Oc3nn4c(F)c(-c5ccc(S(C)(=O)=O)cc5)nc4s3)CC2)n1 (stereo not shown) [Compound 1061, 5-(4-(1-((5-fluoro-6-(4-(methylsulfonyl)phenyl)imidazo[2,1-b][1,3,4]thiadiazol-2-yl)oxy)ethyl)piperidin-1-yl)-3-isopropyl-1,2,4-oxadiazole], the activation at 1 µM was 79%.
In the case of CCc1cnc(N2CCC([C@@H](C)Oc3nn4cc(-c5ccc(S(C)(=O)=O)cc5)nc4s3)CC2)nc1 [Compound 1062, (R)-2-(1-(1-(5-ethylpyrimidin-2-yl)piperidin-4-yl)ethoxy)-6-(4-(methylsulfonyl)phenyl)imidazo[2,1-b][1,3,4]thiadiazole], the activation at 1 µM is reported as 78%.
CC(C)c1noc(N2CCC([C@@H](C)Oc3nn4cc(-c5ccnc(F)c5)nc4s3)CC2)n1 [Compound 1065, (R)-5-(4-(1-((6-(2-fluoropyridin-4-yl)imidazo[2,1-b][1,3,4]thiadiazol-2-yl)oxy)ethyl)piperidin-1-yl)-3-isopropyl-1,2,4-oxadiazole] showed an activation at 1 µM of 62%.
For CC(C)c1noc(N2CCC([C@@H](C)Oc3nn4c(F)c(-c5ccc(S(C)(=O)=O)cc5)nc4s3)CC2)n1 [Compound 1066, (R)-5-(4-(1-((5-fluoro-6-(4-(methylsulfonyl)phenyl)imidazo[2,1-b][1,3,4]thiadiazol-2-yl)oxy)ethyl)piperidin-1-yl)-3-isopropyl-1,2,4-oxadiazole], the activation at 1 µM was 72%.
For CC(C)c1noc(N2CCC([C@H](C)Oc3nn4cc(-c5cc[n+]([O-])cc5)nc4s3)CC2)n1 [Compound 1068, (S)-4-(2-(1-(1-(3-isopropyl-1,2,4-oxadiazol-5-yl)piperidin-4-yl)ethoxy)imidazo[2,1-b][1,3,4]thiadiazol-6-yl)pyridine 1-oxide], the activation at 1 µM was 59%.

Same assay, conditions: cAMP, class symbols, legend not given
CC(C)c1noc(N2CCC([C@@H](C)Oc3nn4cc(-c5ccc(S(C)(=O)=O)nc5)nc4s3)CC2)n1 [Compound 1058, (R)-3-isopropyl-5-(4-(1-((6-(6-(methylsulfonyl)pyridin-3-yl)imidazo[2,1-b][1,3,4]thiadiazol-2-yl)oxy)ethyl)piperidin-1-yl)-1,2,4-oxadiazole] was tested, and the EC50 was “A+”.
CC(C)c1noc(N2CCC([C@@H](C)Oc3nn4cc(-c5ccc(S(C)(=O)=O)cc5)nc4s3)CC2)n1 [Compound 1060, (R)-3-isopropyl-5-(4-(1-((6-(4-(methylsulfonyl)phenyl)imidazo[2,1-b][1,3,4]thiadiazol-2-yl)oxy)ethyl)piperidin-1-yl)-1,2,4-oxadiazole] was tested, and the EC50 was “A+”.
For CCc1cnc(N2CCC([C@@H](C)Oc3nn4cc(-c5ccc(S(C)(=O)=O)cc5)nc4s3)CC2)nc1 [Compound 1062, (R)-2-(1-(1-(5-ethylpyrimidin-2-yl)piperidin-4-yl)ethoxy)-6-(4-(methylsulfonyl)phenyl)imidazo[2,1-b][1,3,4]thiadiazole], the EC50 was “A+”.
CC(C)c1noc(N2CCC([C@@H](C)Oc3nn4c(F)c(-c5ccc(S(C)(=O)=O)cc5)nc4s3)CC2)n1 [Compound 1066, (R)-5-(4-(1-((5-fluoro-6-(4-(methylsulfonyl)phenyl)imidazo[2,1-b][1,3,4]thiadiazol-2-yl)oxy)ethyl)piperidin-1-yl)-3-isopropyl-1,2,4-oxadiazole] was tested, and the EC50 was “A+”.
